We go through four molecules from US11000033B2, “Ketone or oxime compound, and herbicide” (NISSAN CHEMICAL CORPORATION, priority 2014, dated 2021).

SMILES strings stand for the structures.

What all share (format): in vivo
The test system of one data set is Galium spurium. Put plainly: Test Example 4: herbicidal effect by soil treatment (symbol Q). To be noted: application herbicide amount 320 g/ha. In outline: (§1)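 Seeds were sown in sterilized diluvial soil, covered with about 1.5 cm of soil, and the soil surface was sprayed with a water-diluted emulsion of the compound at a predetermined rate. Plants grew in a greenhouse at 25° C. to 30° C.; effects were scored visually 3 weeks after application.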

Data set [1] has as its system Abutilon theophrasti. Briefly: Test Example 5: herbicidal effect by foliage application, plastic box (symbol M). To be noted: 320 g/ha, 3 weeks after application. The procedure, abridged: (§2)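 Sowing in sterilized diluvial soil, 14 days' greenhouse growth at 25° C. to 30° C., then uniform small-sprayer foliar application of aqueous emulsion dilution; plants scored three weeks afterwards.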

Data set [2] has as its system soybean. Put plainly: Test Example 5: effect on crop by foliage application, plastic box (symbol d). Conditions: 320 g/ha, 3 weeks after application. In outline: (§3)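 Foliage-application test plants come from spot sowing in sterilized diluvial soil under a soil layer of about 1.5 cm, grown at 25° C. to 30° C. in a greenhouse.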
Data set [3] relates to Echinochloa oryzacola Vasing. Put plainly: Test Example 1: herbicidal activity, application before weed generation in submerged conditions (symbol A). To be noted: application herbicide amount 320 g/ha. In outline:
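Scores run 0 to 5 by herbicidal ratio, with 5 meaning 90% or more and 0 meaning 5% or lower, read 3 weeks after treatment. Compound was applied as a diluted emulsion to the water surface of submerged alluvial-soil pots on the day weed seeds were sown.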

In the next data set the test system is corn. Briefly: Test Example 5: effect on crop by foliage application, plastic box (symbol c). To be noted: 320 g/ha, 3 weeks after application. In outline:
as §3

Data set [4] relates to Abutilon theophrasti. Briefly: Test Example 4: herbicidal effect by soil treatment (symbol M). Conditions: application herbicide amount 320 g/ha. In outline:
as §1

Data set [5] concerns Echinochloa crus-galli var. crus-galli. Briefly: Test Example 4: herbicidal effect by soil treatment (symbol H). To be noted: application herbicide amount 320 g/ha. In outline: as §1
Data set [6] has as its system directly sowed rice plant. Briefly: Test Example 3: effect on crop by foliage application, Wagner pot (symbol b). Conditions: application herbicide amount 320 g/ha, Table 24. The procedure, abridged: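 Steps: fill a 1/10000-are Wagner pot with alluvial soil; add water and mix to submerge at 0.1–0.5 cm depth; sow rice plus Echinochloa crus-galli var. crus-galli, Leptochloa chinensis and Cyperus difformis; grow in a 25–30 °C greenhouse.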

The test system of the next data set is Chenopodium album. Briefly: Test Example 4: herbicidal effect by soil treatment (symbol O). Conditions: application herbicide amount 320 g/ha. In outline: as §1
A further data set concerns Avena fatua. Put plainly: Test Example 5: herbicidal effect by foliage application, plastic box (symbol I). To be noted: 320 g/ha, 3 weeks after application. The procedure, abridged:
as §2

The test system of another data set is transplanted rice plant. Put plainly: Test Example 1: effect on crop, application before weed generation in submerged conditions (symbol a). Conditions: application herbicide amount 320 g/ha. The procedure, abridged:
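Alluvial soil pots flooded to 4 cm water, sown with Echinochloa oryzacola, Scirpus juncoides and Monochoria vaginalis, then transplanted with 2.5 leaf stage rice seedlings; pre-emergence application. Greenhouse 25° C. to 30° C.; scored 0–5 by herbicidal ratio 3 weeks after application.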

A further data set has as its system Veronica persica. Put plainly: Test Example 5: herbicidal effect by foliage application, plastic box (symbol R). Conditions: 320 g/ha, 3 weeks after application. The procedure, abridged:
as §2

A further data set concerns Apera spica-venti. Put plainly: Test Example 4: herbicidal effect by soil treatment (symbol L). Conditions: application herbicide amount 320 g/ha. The procedure, abridged:
as §1

The subject of data set [7] is soybean. Briefly: Test Example 4: effect on crop by soil treatment (symbol d). To be noted: application herbicide amount 320 g/ha. In outline:
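Grown at 25° C. to 30° C. in a greenhouse, the crops came from seed sown spot-wise in sterilized diluvial soil under roughly 1.5 cm of covering soil.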

In a further data set the test system is Digitaria ciliaris. Put plainly: Test Example 5: herbicidal effect by foliage application, plastic box (symbol F). To be noted: 320 g/ha, 3 weeks after application. In outline:
as §2

Take `CC#Cc1cc(C)c(C2=C(O)CC(CC(=NOC)C3CC3)C2=O)c(C)c1` (stereo not drawn) [9-008]: in the data set on Galium spurium, the “Herbicidal effect grade, Q: Galium spurium” value (shortened to “Herbicidal effect grade, Q”) is 0 (Herbicidal ratio of 5% or lower (almost no effect)). For the same molecule, the “M: Abutilon theophrasti, herbicidal effect grade” value in the data set on Abutilon theophrasti [1] was 4 (Herbicidal ratio of 70% or higher and lower than 90%). Besides, in the data set on soybean [2], the “d: soybean, effect on crop grade” value is 3 (Herbicidal ratio of 40% or higher and lower than 70%). For the same molecule, the “A (Echinochloa oryzacola Vasing.) herbicidal effect grade” value in data set [3] is recorded as 5 (Herbicidal ratio of 90% or more (almost completely withered)). The “c: corn, effect on crop grade” value with corn is reported as 5 (Herbicidal ratio of 90% or more (almost completely withered)). In the data set with Abutilon theophrasti [4], the “Herbicidal effect grade, M: Abutilon theophrasti” value (shortened to “Herbicidal effect grade, M”) is 4 (Herbicidal ratio of 70% or higher and lower than 90%). Also, in data set [5], the “Herbicidal effect grade, H: Echinochloa crus-galli var. crus-galli” value (“Herbicidal effect grade, H” for short) is recorded as 5 (Herbicidal ratio of 90% or more (almost completely withered)). Further, the “b (directly sowed rice plant) effect on crop grade” value in data set [6] was 5 (Herbicidal ratio of 90% or more (almost completely withered)). The “Herbicidal effect grade, O: Chenopodium album” value (from here on “Herbicidal effect grade, O”) with Chenopodium album is listed as 0 (Herbicidal ratio of 5% or lower (almost no effect)). The “I: Avena fatua, herbicidal effect grade” value in the data set with Avena fatua is 4 (Herbicidal ratio of 70% or higher and lower than 90%). Moreover, in the data set with transplanted rice plant, the “a (transplanted rice plant) effect on crop grade” value is on record as 5 (Herbicidal ratio of 90% or more (almost completely withered)). In addition, the “R: Veronica persica, herbicidal effect grade” value (“R: Veronica persica” for short) in the data set with Veronica persica was 4 (Herbicidal ratio of 70% or higher and lower than 90%). The “Herbicidal effect grade, L: Apera spica-venti” value (“Herbicidal effect grade, L” below) in the data set on Apera spica-venti is recorded as 5 (Herbicidal ratio of 90% or more (almost completely withered)). The “Effect on crop grade, d: soybean” value in the data set on soybean [7] was 0 (Herbicidal ratio of 5% or lower (almost no effect)). Further, in the data set with Digitaria ciliaris, the “F: Digitaria ciliaris, herbicidal effect grade” value (“F: Digitaria ciliaris” below) is 5 (Herbicidal ratio of 90% or more (almost completely withered)).
With `Cc1cc(-n2cc(Cl)cn2)cc(C)c1C1=C(O)CC(CC(=NOCC(F)(F)F)C(C)C)C1=O` (stereo not drawn) [9-014], the “Herbicidal effect grade, Q” value with Galium spurium is 0 (Herbicidal ratio of 5% or lower (almost no effect)). Moreover, the “M: Abutilon theophrasti, herbicidal effect grade” value in the data set on Abutilon theophrasti [1] was 0 (Herbicidal ratio of 5% or lower (almost no effect)). The “d: soybean, effect on crop grade” value in the data set with soybean [2] is 0 (Herbicidal ratio of 5% or lower (almost no effect)). Moreover, the “A (Echinochloa oryzacola Vasing.) herbicidal effect grade” value in data set [3] is reported as 5 (Herbicidal ratio of 90% or more (almost completely withered)). The “c: corn, effect on crop grade” value with corn is given as 5 (Herbicidal ratio of 90% or more (almost completely withered)). The “Herbicidal effect grade, M” value with Abutilon theophrasti [4] was 0 (Herbicidal ratio of 5% or lower (almost no effect)). In addition, the “Herbicidal effect grade, H” value in data set [5] is 1 (Herbicidal ratio of 5% or higher and lower than 20%). Besides, the “b (directly sowed rice plant) effect on crop grade” value in data set [6] is 5 (Herbicidal ratio of 90% or more (almost completely withered)). For the same molecule, the “Herbicidal effect grade, O” value with Chenopodium album is recorded as 0 (Herbicidal ratio of 5% or lower (almost no effect)). Also, the “I: Avena fatua, herbicidal effect grade” value in the data set on Avena fatua was 4 (Herbicidal ratio of 70% or higher and lower than 90%). Further, the “a (transplanted rice plant) effect on crop grade” value in the data set on transplanted rice plant was 5 (Herbicidal ratio of 90% or more (almost completely withered)). Besides, the “R: Veronica persica” value in the data set with Veronica persica was 2 (Herbicidal ratio of 20% or higher and lower than 40%). In the data set with Apera spica-venti, the “Herbicidal effect grade, L” value is given as 0 (Herbicidal ratio of 5% or lower (almost no effect)). Moreover, the “Effect on crop grade, d: soybean” value with soybean [7] is reported as 0 (Herbicidal ratio of 5% or lower (almost no effect)). For the same molecule, the “F: Digitaria ciliaris” value with Digitaria ciliaris is listed as 5 (Herbicidal ratio of 90% or more (almost completely withered)).
For `CC#Cc1cc(C)c(C2=C(O)CC(CC(=NOCCOC)C3CC3)C2=O)c(C)c1` (stereo not drawn) [9-021], the “Herbicidal effect grade, Q” value in the data set with Galium spurium is 0 (Herbicidal ratio of 5% or lower (almost no effect)). In the data set on Abutilon theophrasti [1], the “M: Abutilon theophrasti, herbicidal effect grade” value is 2 (Herbicidal ratio of 20% or higher and lower than 40%). In addition, the “d: soybean, effect on crop grade” value in the data set with soybean [2] was 1 (Herbicidal ratio of 5% or higher and lower than 20%). Further, in data set [3], the “A (Echinochloa oryzacola Vasing.) herbicidal effect grade” value is reported as 5 (Herbicidal ratio of 90% or more (almost completely withered)). In addition, in the data set on corn, the “c: corn, effect on crop grade” value is given as 5 (Herbicidal ratio of 90% or more (almost completely withered)). Also, the “Herbicidal effect grade, M” value with Abutilon theophrasti [4] was 1 (Herbicidal ratio of 5% or higher and lower than 20%). Further, in [5], the “Herbicidal effect grade, H” value was 5 (Herbicidal ratio of 90% or more (almost completely withered)). Moreover, the “b (directly sowed rice plant) effect on crop grade” value in data set [6] is 5 (Herbicidal ratio of 90% or more (almost completely withered)). Also, in the data set on Chenopodium album, the “Herbicidal effect grade, O” value is 0 (Herbicidal ratio of 5% or lower (almost no effect)). Further, the “I: Avena fatua, herbicidal effect grade” value in the data set on Avena fatua is 4 (Herbicidal ratio of 70% or higher and lower than 90%). In the data set with transplanted rice plant, the “a (transplanted rice plant) effect on crop grade” value is given as 5 (Herbicidal ratio of 90% or more (almost completely withered)). Moreover, the “R: Veronica persica” value in the data set with Veronica persica is 4 (Herbicidal ratio of 70% or higher and lower than 90%). Besides, the “Herbicidal effect grade, L” value with Apera spica-venti is listed as 5 (Herbicidal ratio of 90% or more (almost completely withered)). In addition, the “Effect on crop grade, d: soybean” value with soybean [7] is on record as 0 (Herbicidal ratio of 5% or lower (almost no effect)). The “F: Digitaria ciliaris” value with Digitaria ciliaris is given as 5 (Herbicidal ratio of 90% or more (almost completely withered)).
Turning to `CC#Cc1cc(C)c(C2=C(O)CC(CC(=NOCCOC)C(C)C)C2=O)c(C)c1` (stereo not drawn) [9-023], the “Herbicidal effect grade, Q” value with Galium spurium is 0 (Herbicidal ratio of 5% or lower (almost no effect)). Further, the “M: Abutilon theophrasti, herbicidal effect grade” value in the data set on Abutilon theophrasti [1] was 0 (Herbicidal ratio of 5% or lower (almost no effect)). For the same molecule, the “d: soybean, effect on crop grade” value with soybean [2] is 0 (Herbicidal ratio of 5% or lower (almost no effect)). In addition, the “A (Echinochloa oryzacola Vasing.) herbicidal effect grade” value in data set [3] is 5 (Herbicidal ratio of 90% or more (almost completely withered)). Moreover, the “c: corn, effect on crop grade” value with corn is given as 5 (Herbicidal ratio of 90% or more (almost completely withered)). Further, the “Herbicidal effect grade, M” value in the data set with Abutilon theophrasti [4] is 0 (Herbicidal ratio of 5% or lower (almost no effect)). Also, the “Herbicidal effect grade, H” value in data set [5] is 5 (Herbicidal ratio of 90% or more (almost completely withered)). Also, the “b (directly sowed rice plant) effect on crop grade” value in data set [6] is 5 (Herbicidal ratio of 90% or more (almost completely withered)). Besides, the “Herbicidal effect grade, O” value in the data set on Chenopodium album is reported as 0 (Herbicidal ratio of 5% or lower (almost no effect)). The “I: Avena fatua, herbicidal effect grade” value in the data set with Avena fatua is 4 (Herbicidal ratio of 70% or higher and lower than 90%). Also, the “a (transplanted rice plant) effect on crop grade” value in the data set on transplanted rice plant is 5 (Herbicidal ratio of 90% or more (almost completely withered)). In addition, the “R: Veronica persica” value in the data set on Veronica persica is 3 (Herbicidal ratio of 40% or higher and lower than 70%). Further, in the data set with Apera spica-venti, the “Herbicidal effect grade, L” value was 5 (Herbicidal ratio of 90% or more (almost completely withered)). Further, in the data set on soybean [7], the “Effect on crop grade, d: soybean” value was 0 (Herbicidal ratio of 5% or lower (almost no effect)). Further, the “F: Digitaria ciliaris” value with Digitaria ciliaris is recorded as 5 (Herbicidal ratio of 90% or more (almost completely withered)).
